Measurements taken from patent US20100048676A1, “Non-androgen dependent roles for androgen receptor in liver cancer” (University of Rochester, priority 2008, published 2010).
Where two headings read alike, the source gives them in different places.

Legend:
[1] = tested on: primary liver tumor of AR+/y mice; experiment: Primary liver tumor cells inoculated subcutaneously into nude mice, tumor growth; format: in vivo, mouse; conditions: I.P. 50 mg/kg/mice twice per week, 17 weeks
Text: (§1) FIG. 6. Targeting AR as therapeutic strategy. (A) Establishment of AR siRNA stable transfectants of human SKAR3 cells. Scrambled siRNA (SKAR3-sc, lane 3) and different siRNA targeting AR (SKAR3-si1; SKAR3-si2; SKAR3-si3) stable transfectants derived from SKAR3 cells. LNCaP and SK-Hep1 cells served as positive and negative controls of AR expression, respectively. (B) AR transactivation activity was used to examine the knockdown efficiency of AR siRNA in the SKAR3 cells. The SKAR3-si1 cells were used to compare with SKAR3-sc cells and treated with EtOH and 1 nM DHT for 24 hrs after ARE(4)-luciferase transfection. The readings were normalized with the read out of pRL-TK cotransfection and pooled three individual experiments. (C) AR siRNA effect on SKAR3 cell growth. SKAR3-sc and SKAR3-si1 cells were treated with EtOH or 1 nM DHT, then observed cell growth by counting cells on different days. (D) ASC-J9 effect on SKAR3 and SKAR7 cells. Cells were plated and cultured with EtOH, 10 nM DHT and 5 μM ASC-J9 for different days and examined cell growth using MTT assay. (E) ASC-J9 effect on SKAR3 cell apoptosis and proliferation. Cells were cultured with 10 nM DHT, or 5 μM ASC-J9 for 24 hrs, then detached, stained with PI, assayed immediately by flowcytometry to observe cell apoptosis. […] Six injection sites from 3 mice were measured and pooled. […]

[2] = tested on: SKAR3 cells; experiment: SKAR3 cell apoptosis, PI staining and flowcytometry; format: cell-based, human; conditions: 5 μM ASC-J9, 24 hrs, absence or presence of 10 nM DHT
Text: as §1

[3] = tested on: primary tumor cells isolated from AR+/y mice livers; experiment: Growth of primary cells from DEN-induced AR+/y liver tumors (MTT assay); format: cell-based, mouse
Procedure: (E) Cell growth analysis using MTT assay on the cells derived from AR^+/y primary liver tumor culture in 55-weeks DEN-induced AR^+/y mice. Cells within 3 passages of subculture were used, treated with ethanol (EtOH) or DHT at different concentrations (1 and 10 nM). Cell growth was monitored for a maximum of 8 days and harvested for MTT assay. Values from background readings at 650 nm were subtracted and pooled all MTT assay results from 5 independent experiments.
(F) Primary cells were derived from 55-weeks DEN-induced AR^+/y liver tumors and cultured ex vivo. Cells were treated with ASC-J9 or cotreated with 10 nM DHT for 8 days, then harvested for MTT assay. The result represents three independent experiments.
The hepatic cells were isolated from 55-weeks-old DEN-treated mice and performed primary hepatic cell culture as described previously(30). […] The cells were maintained in DMEM (Invitrogen) with 10% Fetal Calf Serum (FCS), 1% Glutamine; and 1% penicillin/streptomycin. The cell growth assays were performed according to a previous study(32) using cell counting assay or MTT (3-(4,5-Dimethylthiazol-2-yl)-2,5-diphenyltetrazolium bromide) assay(33).

[4] = injection of ASC-J9 for 15 weeks, mice; cited from earlier work
[5] = tested on: SKAR3 cells; experiment: ASC-J9 effect on SKAR3 cell growth (MTT assay); format: cell-based, human; conditions: 5 μM ASC-J9, in the presence of 10 nM DHT
Text: as §1

[6] = tested on: SKAR7 cells; experiment: ASC-J9 effect on SKAR7 cell growth (MTT assay); format: cell-based, human; conditions: 5 μM ASC-J9, in the presence of 10 nM DHT
Text: as §1

[7] = tested on: SKAR3 cells; conditions: 10 nM DHT
Text: (§2) FIG. 3. […] (A) Apoptotic cells in SKpar and SKAR3 cells. […] (B) Androgen and AR effect on anchorage-dependent cell growth. […] (C) Anchorage-independent cell growth of SKpar and SKAR3 cells. Cell clusters greater than 50 cells were counted as a positive clone.

[8] = tested on: superoxide dismutase 2 (SOD2); conditions: 10 nM DHT
Procedure: (§3) FIG. 10. Examination of ROS reducing gene mRNA expression using SKpar and SKAR cells, (A, B) We plated cells and treated as indicated for 24 hrs. We examined Thioreducin-2 (A) and SOD2 (B) mRNA using Q-PCR as described in Methods.
(§4) The mRNA expression of MnSOD (SOD2), Thioreducin-2, and Gadd45 was determined using quantitative RT-PCR (Q-PCR) as previous described(37), and primer sequences are as follows.

[9] = tested on: thioreducin-2; conditions: 10 nM DHT
Procedure: as §3, §4

[10] = tested on: SKAR3 cells; conditions: 1 nM DHT with H2O2 treatment, 24 hrs
Procedure: (B) SKpar and SKAR3 cells were treated with 200 μM H2O2 or 1 nM DHT for 24 hrs and measured ROS level.

[11] = tested on: AR transactivation; experiment: ARE(4)-luciferase promoter assay of AR transactivation in SKAR3 sublines; format: cell-based, human; conditions: 1 nM DHT
Text: as §1

[12] = tested on: SKAR3 cells; conditions: SKAR3-EtOH vs SKAR3-DHT, 10 nM DHT, 4 days
Procedure: as §2
(§5) The hepatic cells were isolated from 55-weeks-old DEN-treated mice and performed primary hepatic cell culture as described previously(30). The cells were plated onto 100-mm BioCoat mouse collagen I coated dishes (BD Biosciences) at a density of 5×10^5 viable cells/dish in low glucose Dulbecco's modified Eagle's medium (Invitrogen) containing 1% bovine serum albumin, 0.8 mM oleate, […] insulin (4 milliunits/ml), […] dexamethasone, 100 units of penicillin, and 1% of streptomycin/ml. Human HCC cells were obtained from Dr. Y. S. Jou in Acdemia Secienica, Taiwan published previously(31). The cells were maintained in DMEM (Invitrogen) with 10% Fetal Calf Serum (FCS), 1% Glutamine; and 1% penicillin/streptomycin.

[13] = tested on: SKpar cells; conditions: SKpar-EtOH vs SKpar-DHT, 10 nM DHT, 4 days
Procedure: as §2, §5

[14] = tested on: p53; conditions: 10 nM DHT for 2, 4, and 8 hrs, time-dependent
Procedure: (A) p53 protein expression of SKpar and SKAR3 cells. We treated SKpar and SKAR3 cells with 10 nM DHT for 2, 4, and 8 hrs and measured protein abundance by immunoblotting assay using p53 specific antibody. GAPDH served as loading control.
The p53 expression was analyzed using immunoblotting assay(32) to semi-quantitate p53 protein abundance in the hepatic tumor and HCC cells. […] Protein abundance was measured by Western blotting as previously described(38) using specific antibodies against AR (Pharmingen), p53 (Cell Signaling), Gadd45, . . . , and Bcl-2 (Santa Cruz).

[15] = tested on: SKAR3 cells; experiment: AR siRNA effect on SKAR3 cell growth (SKAR3-sc vs SKAR3-si1); format: cell-based, human; conditions: 1 nM DHT
Text: as §1

[16] = tested on: AR; conditions: MCF-7 cells, retrovirus-based vector; cited from earlier work
[17] = tested on: AR; experiment: AR expression in SKAR3 cells stably transfected with AR-siRNA; format: cell-based, human; conditions: SKAR3-si1, 2 or 3 vs SKAR3-sc
Text: as §1

For `COc1ccc(C=CC(=O)C=C(O)C=Cc2ccc(OC)c(OC)c2)cc1OC` [ASC-J9, 5-hydroxy-1,7-bis(3,4-dimethoxyphenyl)-1,4,6-heptatrien-3-one], the tumor growth [1] was “suppression of tumor growth”, the cell apoptosis [2] was “increased cell apoptosis” and the “primary tumor cell growth” value ([3]; 5 μM ASC-J9, absence or presence of 10 nM DHT, 8 days) was “suppressed the primary tumor cell growth”. For the same compound, the serum testosterone [4] was “little change in serum testosterone”, the “sexual function and fertility” value [4] was “retained normal sexual function and fertility” and the cell growth [5] was “suppression of cell growth”. The cell growth [6] was “suppression of cell growth”.

For `C[C@]12CCC(=O)C[C@@H]1CC[C@@H]1[C@@H]2CC[C@]2(C)[C@@H](O)CC[C@@H]12` [DHT, 5α-dihydrotestosterone], the “AR-promoted anchorage-independent cell growth” value [7] was “little influence”, the “SOD2 mRNA expression” value ([8]; SKAR3 cells treated with H2O2) was “decreased” and the “H2O2-induced SOD2 mRNA expression” value ([8]; SKpar cells) was “failed to suppress”. The “thioreducin-2 mRNA expression” value ([9]; SKAR3 cells treated with H2O2) was “decreased”, the “H2O2-induced thioreducin-2 mRNA expression” value ([9]; SKpar cells) was “failed to suppress” and the ROS level [10] was “further enhanced”. For the same compound, the “cell growth (cell numbers)” value ([3]; DHT 1 and 10 nM, maximum of 8 days) was “cell numbers increased in a dose-dependent manner”, the “AR transactivation induced by DHT” value ([11]; SKAR3-sc cells) was “could induce substantial AR transactivation” and the cell growth [12] was “further increased cell growth”. The cell growth [13] was “little effect” and the p53 protein expression [14] was “down-regulation of p53”.

In the case of “AR-siRNA: retrovirus-based vector that expresses AR-siRNA; stable SKAR3 sublines SKAR3-si1, 2 or 3 (guide GGGCCCCTGGATGGATAGCTACCTCGAGGTAGCTATCCATCCAGGGGCC)”, the DHT-induced cell growth [15] is given as “suppression of DHT-induced cell growth”, the AR knockdown [16] is given as “effectively knocked down the AR” and the “AR-mediated transactivation under AR-siRNA” value ([11]; SKAR3-si1 vs SKAR3-sc, 24 hrs) is given as “could induce substantial AR transactivation in SKAR3-sc, but not SKAR3-si1 cells”. For the same compound, the AR expression [17] was “substantially knocked down”.
